Measurements as given in PubChem BioAssay (NCI).
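Step 1: Grow cells in 96-well plates. Step 2: Expose to compound for 48 hours at 5 concentrations. Step 3: Interpolate endpoints linearly; if unreached, use highest concentration. TGI: concentration producing complete growth inhibition.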

How the values were obtained:
Test in all cases: NCI-60 cell line screen, 48 h
786-0 renal = test system: 786-0 renal
A498 renal = test system: A498 renal
A549 NSCLC = test system: A549 NSCLC
ACHN renal = test system: ACHN renal
BT-549 breast = test system: BT-549 breast
CAKI-1 renal = test system: CAKI-1 renal
CCRF-CEM leukemia = test system: CCRF-CEM leukemia
COLO 205 colon = test system: COLO 205 colon
DU-145 prostate = test system: DU-145 prostate
HCC-2998 colon = test system: HCC-2998 colon
HCT-116 colon = test system: HCT-116 colon
HCT-15 colon = test system: HCT-15 colon
HL-60(TB) leukemia = test system: HL-60(TB) leukemia
HOP-62 NSCLC = test system: HOP-62 NSCLC
HOP-92 NSCLC = test system: HOP-92 NSCLC
HS 578T breast = test system: HS 578T breast
HT29 colon = test system: HT29 colon
IGROV1 ovarian = test system: IGROV1 ovarian
K-562 leukemia = test system: K-562 leukemia
KM12 colon = test system: KM12 colon
LOX IMVI melanoma = test system: LOX IMVI melanoma
M14 melanoma = test system: M14 melanoma
MALME-3M melanoma = test system: MALME-3M melanoma
MCF7 breast = test system: MCF7 breast
MDA-MB-231 breast = test system: MDA-MB-231 breast
MDA-MB-435 = test system: MDA-MB-435
MDA-N = test system: MDA-N
MOLT-4 leukemia = test system: MOLT-4 leukemia
NCI-H226 lung = test system: NCI-H226 lung
NCI-H23 lung = test system: NCI-H23 lung
NCI-H460 lung = test system: NCI-H460 lung
NCI-H522 lung = test system: NCI-H522 lung
NCI/ADR-RES ovarian = test system: NCI/ADR-RES ovarian
OVCAR-3 ovarian = test system: OVCAR-3 ovarian
OVCAR-4 ovarian = test system: OVCAR-4 ovarian
OVCAR-5 ovarian = test system: OVCAR-5 ovarian
OVCAR-8 ovarian = test system: OVCAR-8 ovarian
PC-3 prostate = test system: PC-3 prostate
RPMI-8226 leukemia = test system: RPMI-8226 leukemia
RXF 393 renal = test system: RXF 393 renal
SF-268 CNS = test system: SF-268 CNS
SF-295 CNS = test system: SF-295 CNS
SF-539 CNS = test system: SF-539 CNS
SK-MEL-2 melanoma = test system: SK-MEL-2 melanoma
SK-MEL-28 melanoma = test system: SK-MEL-28 melanoma
SK-MEL-5 melanoma = test system: SK-MEL-5 melanoma
SN12C renal = test system: SN12C renal
SNB-19 CNS = test system: SNB-19 CNS
SNB-75 CNS = test system: SNB-75 CNS
SR leukemia = test system: SR leukemia
SW-620 colon = test system: SW-620 colon
T-47D breast = test system: T-47D breast
TK-10 renal = test system: TK-10 renal
U251 CNS = test system: U251 CNS
UACC-257 melanoma = test system: UACC-257 melanoma
UACC-62 melanoma = test system: UACC-62 melanoma
UO-31 renal = test system: UO-31 renal
SK-OV-3 ovarian = test system: SK-OV-3 ovarian

CC(=O)C1=C(c2ccccc2)N(C2OC(CO)C(O)C(O)C2O)C(S)=C(C#N)C1c1ccc(Cl)cc1 (configuration not stated)
TGI (786-0 renal): 80.6 µM | TGI (A498 renal): > 100 µM | TGI (A549 NSCLC): > 100 µM | TGI (ACHN renal): > 100 µM | TGI (BT-549 breast): 35.6 µM | TGI (CAKI-1 renal): 75 µM | TGI (CCRF-CEM leukemia): > 100 µM | TGI (COLO 205 colon): 40.6 µM | TGI (DU-145 prostate): > 100 µM | TGI (HCC-2998 colon): 34.3 µM | TGI (HCT-116 colon): 30.6 µM | TGI (HCT-15 colon): > 100 µM | TGI (HL-60(TB) leukemia): > 100 µM | TGI (HOP-62 NSCLC): 59.9 µM | TGI (HOP-92 NSCLC): 88.7 µM | TGI (HS 578T breast): 78.5 µM | TGI (HT29 colon): > 100 µM | TGI (IGROV1 ovarian): > 100 µM | TGI (K-562 leukemia): > 100 µM | TGI (KM12 colon): 42.1 µM | TGI (LOX IMVI melanoma): 34.1 µM | TGI (M14 melanoma): 46.7 µM | TGI (MALME-3M melanoma): 50.4 µM | TGI (MCF7 breast): 42 µM | TGI (MDA-MB-231 breast): 61.8 µM | TGI (MDA-MB-435): 51.2 µM | TGI (MDA-N): 51.5 µM | TGI (MOLT-4 leukemia): 35.3 µM | TGI (NCI-H226 lung): 58.8 µM | TGI (NCI-H23 lung): > 100 µM | TGI (NCI-H460 lung): 52.7 µM | TGI (NCI-H522 lung): 48.1 µM | TGI (NCI/ADR-RES ovarian): > 100 µM | TGI (OVCAR-3 ovarian): 37.2 µM | TGI (OVCAR-4 ovarian): > 100 µM | TGI (OVCAR-5 ovarian): > 100 µM | TGI (OVCAR-8 ovarian): > 100 µM | TGI (PC-3 prostate): 42.2 µM | TGI (RPMI-8226 leukemia): > 100 µM | TGI (RXF 393 renal): 85.3 µM | TGI (SF-268 CNS): 73.9 µM | TGI (SF-295 CNS): 99.6 µM | TGI (SF-539 CNS): 50 µM | TGI (SK-MEL-2 melanoma): 29.2 µM | TGI (SK-MEL-28 melanoma): 41.6 µM | TGI (SK-MEL-5 melanoma): 34.9 µM | TGI (SN12C renal): > 100 µM | TGI (SNB-19 CNS): > 100 µM | TGI (SNB-75 CNS): 78.8 µM | TGI (SR leukemia): > 100 µM | TGI (SW-620 colon): 34.5 µM | TGI (T-47D breast): 40.4 µM | TGI (TK-10 renal): > 100 µM | TGI (U251 CNS): 35.2 µM | TGI (UACC-257 melanoma): 49.4 µM | TGI (UACC-62 melanoma): 30.8 µM | TGI (UO-31 renal): > 100 µM

O=C1CC(=O)NC(=NN2C(=O)CSC2c2ccccc2)N1 (configuration not stated)
TGI (786-0 renal): > 100 µM | TGI (A498 renal): > 100 µM | TGI (A549 NSCLC): > 100 µM | TGI (ACHN renal): > 100 µM | TGI (BT-549 breast): > 100 µM | TGI (CAKI-1 renal): > 100 µM | TGI (CCRF-CEM leukemia): > 100 µM | TGI (COLO 205 colon): > 100 µM | TGI (DU-145 prostate): > 100 µM | TGI (HCC-2998 colon): > 100 µM | TGI (HCT-116 colon): > 100 µM | TGI (HCT-15 colon): > 100 µM | TGI (HOP-62 NSCLC): > 100 µM | TGI (HOP-92 NSCLC): > 100 µM | TGI (HS 578T breast): > 100 µM | TGI (HT29 colon): > 100 µM | TGI (IGROV1 ovarian): > 100 µM | TGI (K-562 leukemia): > 100 µM | TGI (KM12 colon): > 100 µM | TGI (M14 melanoma): > 100 µM | TGI (MALME-3M melanoma): > 100 µM | TGI (MCF7 breast): > 100 µM | TGI (MDA-MB-231 breast): > 100 µM | TGI (MDA-MB-435): > 100 µM | TGI (MDA-N): > 100 µM | TGI (MOLT-4 leukemia): > 100 µM | TGI (NCI-H226 lung): > 100 µM | TGI (NCI-H23 lung): > 100 µM | TGI (NCI-H460 lung): > 100 µM | TGI (NCI-H522 lung): > 100 µM | TGI (NCI/ADR-RES ovarian): > 100 µM | TGI (OVCAR-3 ovarian): > 100 µM | TGI (OVCAR-4 ovarian): > 100 µM | TGI (OVCAR-5 ovarian): > 100 µM | TGI (OVCAR-8 ovarian): > 100 µM | TGI (PC-3 prostate): > 100 µM | TGI (RPMI-8226 leukemia): > 100 µM | TGI (RXF 393 renal): > 100 µM | TGI (SF-268 CNS): > 100 µM | TGI (SF-295 CNS): > 100 µM | TGI (SF-539 CNS): > 100 µM | TGI (SK-MEL-2 melanoma): > 100 µM | TGI (SK-MEL-28 melanoma): > 100 µM | TGI (SK-MEL-5 melanoma): > 100 µM | TGI (SK-OV-3 ovarian): > 100 µM | TGI (SN12C renal): > 100 µM | TGI (SNB-75 CNS): > 100 µM | TGI (SR leukemia): > 100 µM | TGI (SW-620 colon): > 100 µM | TGI (T-47D breast): > 100 µM | TGI (TK-10 renal): > 100 µM | TGI (U251 CNS): > 100 µM | TGI (UACC-257 melanoma): > 100 µM | TGI (UACC-62 melanoma): > 100 µM | TGI (UO-31 renal): > 100 µM
